# Where two headings read alike, the source gives them in different places.
# Assays:
# [1] = tested on: Erwinia chrysanthemi; test: Material disinfection test; format: cell-based; conditions: 5 minutes
# [2] = tested on: Burkholderia plantarii; test: Material disinfection test; format: cell-based; conditions: 5 minutes
# [3] = tested on: Burkholderia glumae; test: Material disinfection test; format: cell-based; conditions: 5 minutes
# [4] = tested on: Ralstonia solanacearum; format: cell-based; conditions: 5 minutes
# [5] = tested on: Pythium ultimum; test: Material disinfection test; format: cell-based; conditions: 5 minutes
# [6] = tested on: Fusarium oxysporum; test: Material disinfection test; format: cell-based; conditions: 5 minutes
# [7] = tested on: Rhizoctonia solani; test: Material disinfection test; format: cell-based; conditions: 5 minutes
# [8] = tested on: Pyricularia oryzae; format: cell-based; conditions: 5 minutes
# [9] = tested on: Botrytis cinerea; test: Material disinfection test; format: cell-based; conditions: 5 minutes
# [10] = tested on: Erwinia carotovora var. cartovora; test: Basic test: cutting knife disinfection, blackleg pathogens; format: cell-based; conditions: knife immersed 5 seconds
# [11] = tested on: Clavibacter michiganense subsp. Nebraskense (ATCC27822); test: Basic test: cutting knife disinfection, ring rot pathogens; format: cell-based; conditions: knife immersed 5 seconds
# [12] = tested on: Erwinia carotovora var. cartovora; test: Test using potatoes: blackleg pathogenesis after cutting with disinfected knife; format: in vivo, potatoes Norin No. 1
# [13] = tested on: bacteria pathogens and filamentous fungi pathogens; format: cell-based
compound,measurement,setting,value
CC(=O)O [Acetic acid],Average value of viable bacteria counts on all materials examined,[1]; 10 times solution sprayed,3.2 × 10^3 cfu/ml
same,Average value of viable bacteria counts on all materials examined,[1]; 50 times solution sprayed,1.1 × 10^7 cfu/ml
same,Average value of viable bacteria counts on all materials examined,[2]; 10 times solution sprayed,1.2 × 10^3 cfu/ml
same,Average value of viable bacteria counts on all materials examined,[2]; 50 times solution sprayed,8.3 × 10^6 cfu/ml
same,Average value of viable bacteria counts on all materials examined,[3]; 10 times solution sprayed,5.0 × 10^2 cfu/ml
same,Average value of viable bacteria counts on all materials examined,[3]; 50 times solution sprayed,3.3 × 10^7 cfu/ml
same,Average value of viable bacteria counts on all materials examined,[4]; 10 times solution sprayed,2.8 × 10^2 cfu/ml
same,Average value of viable bacteria counts on all materials examined,[4]; 50 times solution sprayed,6.0 × 10^8 cfu/ml
same,average value of viable filamentous fungi counts on all materials examined,[5]; 10 times solution sprayed,58 cfu/ml
same,average value of viable filamentous fungi counts on all materials examined,[5]; 50 times solution sprayed,6.8 × 10^3 cfu/ml
same,average value of viable filamentous fungi counts on all materials examined,[6]; 10 times solution sprayed,76 cfu/ml
same,average value of viable filamentous fungi counts on all materials examined,[6]; 50 times solution sprayed,4.2 × 10^2 cfu/ml
same,average value of viable filamentous fungi counts on all materials examined,[7]; 10 times solution sprayed,33 cfu/ml
same,average value of viable filamentous fungi counts on all materials examined,[7]; 50 times solution sprayed,3.1 × 10^2 cfu/ml
same,average value of viable filamentous fungi counts on all materials examined,[8]; 10 times solution sprayed,98 cfu/ml
same,average value of viable filamentous fungi counts on all materials examined,[8]; 50 times solution sprayed,1.5 × 10^2 cfu/ml
same,average value of viable filamentous fungi counts on all materials examined,[9]; 10 times solution sprayed,65 cfu/ml
same,average value of viable filamentous fungi counts on all materials examined,[9]; 50 times solution sprayed,2.6 × 10^2 cfu/ml
O=C1O[C@H]([C@@H](O)CO)C(O)=C1O [Ascorbic acid],Average value of viable bacteria counts on all materials examined,[1]; 10 times solution sprayed,1.0 × 10^8 cfu/ml
same,Average value of viable bacteria counts on all materials examined,[1]; 50 times solution sprayed,1.0 × 10^8 cfu/ml
same,Average value of viable bacteria counts on all materials examined,[2]; 10 times solution sprayed,1.6 × 10^7 cfu/ml
same,Average value of viable bacteria counts on all materials examined,[2]; 50 times solution sprayed,1.8 × 10^7 cfu/ml
same,Average value of viable bacteria counts on all materials examined,[3]; 10 times solution sprayed,1.1 × 10^8 cfu/ml
same,Average value of viable bacteria counts on all materials examined,[3]; 50 times solution sprayed,3.2 × 10^8 cfu/ml
same,Average value of viable bacteria counts on all materials examined,[4]; 10 times solution sprayed,8.5 × 10^8 cfu/ml
same,Average value of viable bacteria counts on all materials examined,[4]; 50 times solution sprayed,1.0 × 10^9 cfu/ml
same,average value of viable filamentous fungi counts on all materials examined,[5]; 10 times solution sprayed,2.3 × 10^4 cfu/ml
same,average value of viable filamentous fungi counts on all materials examined,[5]; 50 times solution sprayed,1.5 × 10^4 cfu/ml
same,average value of viable filamentous fungi counts on all materials examined,[6]; 10 times solution sprayed,3.2 × 10^5 cfu/ml
same,average value of viable filamentous fungi counts on all materials examined,[6]; 50 times solution sprayed,4.7 × 10^5 cfu/ml
same,average value of viable filamentous fungi counts on all materials examined,[7]; 10 times solution sprayed,1.3 × 10^5 cfu/ml
same,average value of viable filamentous fungi counts on all materials examined,[7]; 50 times solution sprayed,2.0 × 10^5 cfu/ml
same,average value of viable filamentous fungi counts on all materials examined,[8]; 10 times solution sprayed,4.2 × 10^4 cfu/ml
same,average value of viable filamentous fungi counts on all materials examined,[8]; 50 times solution sprayed,6.2 × 10^4 cfu/ml
same,average value of viable filamentous fungi counts on all materials examined,[9]; 10 times solution sprayed,4.5 × 10^5 cfu/ml
same,average value of viable filamentous fungi counts on all materials examined,[9]; 50 times solution sprayed,5.0 × 10^5 cfu/ml
O=C(O)CC(O)(CC(=O)O)C(=O)O [Citric acid],Average value of viable bacteria counts on all materials examined,[1]; 10 times solution sprayed,1.7 × 10^8 cfu/ml
same,Average value of viable bacteria counts on all materials examined,[1]; 50 times solution sprayed,1.9 × 10^8 cfu/ml
same,Average value of viable bacteria counts on all materials examined,[2]; 10 times solution sprayed,3.8 × 10^7 cfu/ml
same,Average value of viable bacteria counts on all materials examined,[2]; 50 times solution sprayed,1.0 × 10^7 cfu/ml
same,Average value of viable bacteria counts on all materials examined,[3]; 10 times solution sprayed,2.6 × 10^8 cfu/ml
same,Average value of viable bacteria counts on all materials examined,[3]; 50 times solution sprayed,1.7 × 10^8 cfu/ml
same,Average value of viable bacteria counts on all materials examined,[4]; 10 times solution sprayed,1.1 × 10^9 cfu/ml
same,Average value of viable bacteria counts on all materials examined,[4]; 50 times solution sprayed,1.5 × 10^9 cfu/ml
same,average value of viable filamentous fungi counts on all materials examined,[5]; 10 times solution sprayed,2.8 × 10^4 cfu/ml
same,average value of viable filamentous fungi counts on all materials examined,[5]; 50 times solution sprayed,1.7 × 10^4 cfu/ml
same,average value of viable filamentous fungi counts on all materials examined,[6]; 10 times solution sprayed,3.7 × 10^5 cfu/ml
same,average value of viable filamentous fungi counts on all materials examined,[6]; 50 times solution sprayed,3.4 × 10^5 cfu/ml
same,average value of viable filamentous fungi counts on all materials examined,[7]; 10 times solution sprayed,2.0 × 10^5 cfu/ml
same,average value of viable filamentous fungi counts on all materials examined,[7]; 50 times solution sprayed,1.7 × 10^5 cfu/ml
same,average value of viable filamentous fungi counts on all materials examined,[8]; 50 times solution sprayed,3.2 × 10^4 cfu/ml
same,average value of viable filamentous fungi counts on all materials examined,[9]; 10 times solution sprayed,2.6 × 10^5 cfu/ml
same,average value of viable filamentous fungi counts on all materials examined,[9]; 50 times solution sprayed,4.6 × 10^5 cfu/ml
O=C1C=CC(=O)O1 [Maleic anhydride],sterilization of blackleg pathogens (in words),[10]; 2 to 10 times solutions,complete sterilization
same,sterilization effect on blackleg pathogens (in words),[10]; 25 to 50 times solutions,high sterilization effect
same,sterilization of ring rot pathogens (in words),[11]; 2 to 10 times solutions,complete sterilization
same,sterilization effect on ring rot pathogens (in words),[11]; 25 to 50 times solutions,high sterilization effect
same,sterilization in test using potatoes (in words),[12]; 5 to 10 times solution,complete sterilization
same,sterilization effect in test using potatoes (in words),[12]; 50 times solution,high sterilization effect
same,Average value of viable bacteria counts on all materials examined,[2]; 2 times solution sprayed,0 cfu/ml
same,Average value of viable bacteria counts on all materials examined,[2]; 5 times solution sprayed,0 cfu/ml
same,Average value of viable bacteria counts on all materials examined,[2]; 25 times solution sprayed,0 cfu/ml
same,Average value of viable bacteria counts on all materials examined,[2]; 50 times solution sprayed,0 cfu/ml
same,Average value of viable bacteria counts on all materials examined,[2]; 100 times solution sprayed,0 cfu/ml
same,Average value of viable bacteria counts on all materials examined,[2]; 200 times solution sprayed,7 cfu/ml
same,Average value of viable bacteria counts on all materials examined,[2]; 500 times solution sprayed,1.0 × 10^2 cfu/ml
same,Average value of viable bacteria counts on all materials examined,[3]; 2 times solution sprayed,0 cfu/ml
same,Average value of viable bacteria counts on all materials examined,[3]; 5 times solution sprayed,0 cfu/ml
same,Average value of viable bacteria counts on all materials examined,[3]; 25 times solution sprayed,0 cfu/ml
same,Average value of viable bacteria counts on all materials examined,[3]; 50 times solution sprayed,0 cfu/ml
same,Average value of viable bacteria counts on all materials examined,[3]; 100 times solution sprayed,0 cfu/ml
same,Average value of viable bacteria counts on all materials examined,[3]; 200 times solution sprayed,69 cfu/ml
same,Average value of viable bacteria counts on all materials examined,[3]; 500 times solution sprayed,2.0 × 10^2 cfu/ml
same,Average value of viable bacteria counts on all materials examined,[4]; 2 times solution sprayed,0 cfu/ml
same,Average value of viable bacteria counts on all materials examined,[4]; 5 times solution sprayed,0 cfu/ml
same,Average value of viable bacteria counts on all materials examined,[4]; 25 times solution sprayed,0 cfu/ml
same,Average value of viable bacteria counts on all materials examined,[4]; 50 times solution sprayed,0 cfu/ml
same,Average value of viable bacteria counts on all materials examined,[4]; 100 times solution sprayed,0 cfu/ml
same,Average value of viable bacteria counts on all materials examined,[4]; 200 times solution sprayed,4 cfu/ml
same,Average value of viable bacteria counts on all materials examined,[4]; 500 times solution sprayed,58 cfu/ml
same,average value of viable filamentous fungi counts on all materials examined,[8]; 2 times solution sprayed,0 cfu/ml
same,average value of viable filamentous fungi counts on all materials examined,[8]; 5 times solution sprayed,0 cfu/ml
same,average value of viable filamentous fungi counts on all materials examined,[8]; 25 times solution sprayed,0 cfu/ml
same,average value of viable filamentous fungi counts on all materials examined,[8]; 50 times solution sprayed,0 cfu/ml
same,average value of viable filamentous fungi counts on all materials examined,[8]; 100 times solution sprayed,0 cfu/ml
same,average value of viable filamentous fungi counts on all materials examined,[8]; 200 times solution sprayed,32 cfu/ml
same,average value of viable filamentous fungi counts on all materials examined,[8]; 500 times solution sprayed,1.5 × 10^2 cfu/ml
same,sterilization in material disinfection test (in words),[13],complete sterilization
O=C(O)CC(O)C(=O)O (stereo not shown) [Malic acid],Average value of viable bacteria counts on all materials examined,[1]; 10 times solution sprayed,1.4 × 10^8 cfu/ml
same,Average value of viable bacteria counts on all materials examined,[1]; 50 times solution sprayed,1.2 × 10^8 cfu/ml
same,Average value of viable bacteria counts on all materials examined,[2]; 10 times solution sprayed,1.0 × 10^7 cfu/ml
same,Average value of viable bacteria counts on all materials examined,[2]; 50 times solution sprayed,3.2 × 10^7 cfu/ml
same,Average value of viable bacteria counts on all materials examined,[3]; 10 times solution sprayed,3.6 × 10^8 cfu/ml
same,Average value of viable bacteria counts on all materials examined,[3]; 50 times solution sprayed,5.2 × 10^8 cfu/ml
same,Average value of viable bacteria counts on all materials examined,[4]; 10 times solution sprayed,9.5 × 10^8 cfu/ml
same,Average value of viable bacteria counts on all materials examined,[4]; 50 times solution sprayed,7.8 × 10^8 cfu/ml
same,average value of viable filamentous fungi counts on all materials examined,[5]; 10 times solution sprayed,2.5 × 10^4 cfu/ml
same,average value of viable filamentous fungi counts on all materials examined,[5]; 50 times solution sprayed,4.3 × 10^4 cfu/ml
same,average value of viable filamentous fungi counts on all materials examined,[6]; 10 times solution sprayed,1.8 × 10^5 cfu/ml
same,average value of viable filamentous fungi counts on all materials examined,[6]; 50 times solution sprayed,4.5 × 10^5 cfu/ml
same,average value of viable filamentous fungi counts on all materials examined,[7]; 10 times solution sprayed,2.1 × 10^5 cfu/ml
same,average value of viable filamentous fungi counts on all materials examined,[7]; 50 times solution sprayed,1.8 × 10^5 cfu/ml
same,average value of viable filamentous fungi counts on all materials examined,[8]; 10 times solution sprayed,4.6 × 10^4 cfu/ml
same,average value of viable filamentous fungi counts on all materials examined,[8]; 50 times solution sprayed,5.0 × 10^4 cfu/ml
same,average value of viable filamentous fungi counts on all materials examined,[9]; 10 times solution sprayed,3.7 × 10^5 cfu/ml
same,average value of viable filamentous fungi counts on all materials examined,[9]; 50 times solution sprayed,2.9 × 10^5 cfu/ml
O=C(O)CCC(=O)O [Succinic acid],Average value of viable bacteria counts on all materials examined,[1]; 10 times solution sprayed,1.0 × 10^8 cfu/ml
same,Average value of viable bacteria counts on all materials examined,[1]; 50 times solution sprayed,1.0 × 10^8 cfu/ml
same,Average value of viable bacteria counts on all materials examined,[2]; 10 times solution sprayed,2.5 × 10^7 cfu/ml
same,Average value of viable bacteria counts on all materials examined,[2]; 50 times solution sprayed,2.6 × 10^7 cfu/ml
same,Average value of viable bacteria counts on all materials examined,[3]; 10 times solution sprayed,1.0 × 10^8 cfu/ml
same,Average value of viable bacteria counts on all materials examined,[3]; 50 times solution sprayed,1.5 × 10^8 cfu/ml
same,Average value of viable bacteria counts on all materials examined,[4]; 10 times solution sprayed,1.1 × 10^9 cfu/ml
same,Average value of viable bacteria counts on all materials examined,[4]; 50 times solution sprayed,8.5 × 10^8 cfu/ml
same,average value of viable filamentous fungi counts on all materials examined,[5]; 10 times solution sprayed,7.8 × 10^3 cfu/ml
same,average value of viable filamentous fungi counts on all materials examined,[5]; 50 times solution sprayed,3.0 × 10^4 cfu/ml
same,average value of viable filamentous fungi counts on all materials examined,[6]; 10 times solution sprayed,2.3 × 10^5 cfu/ml
same,average value of viable filamentous fungi counts on all materials examined,[6]; 50 times solution sprayed,4.5 × 10^5 cfu/ml
same,average value of viable filamentous fungi counts on all materials examined,[7]; 10 times solution sprayed,1.5 × 10^5 cfu/ml
same,average value of viable filamentous fungi counts on all materials examined,[7]; 50 times solution sprayed,2.1 × 10^5 cfu/ml
same,average value of viable filamentous fungi counts on all materials examined,[8]; 10 times solution sprayed,3.2 × 10^4 cfu/ml
same,average value of viable filamentous fungi counts on all materials examined,[8]; 50 times solution sprayed,3.1 × 10^4 cfu/ml
same,average value of viable filamentous fungi counts on all materials examined,[9]; 10 times solution sprayed,3.5 × 10^5 cfu/ml
same,average value of viable filamentous fungi counts on all materials examined,[9]; 50 times solution sprayed,4.3 × 10^5 cfu/ml
